Test results reported in patent US8168430B2, “Method for preparation of hepatocyte using ES cell” (Nihon University, priority 2006, dated 2012).

Experiments:
TT2 ES cells [1] = assay: Expression of differentiation markers (RT-PCR, western blot) in ES cells induced to differentiate from embryoid bodies; settings: for expression of the differentiation markers for hepatocyte (albumin, Cyp7a1 etc.): cultured 18 days in supplemented differentiation-inducing medium, RT-PCR and western blot
TT2 ES cells [2] = assay: FACS analysis of albumin producing cells; format: cell-based, mouse; settings: cultured 9 days; FACS with anti-albumin antibodies; control 22%
Method: The medium of the cultured cells was removed and washing was performed using PBS (−). After the cells were detached from the surface of the dish using 0.25% trypsin solution, 5 mL of a collagenase solution as described below was added to the cells and the cells were incubated at 37° C. for 30 minutes in order to digest the intercellular adhesion.
After digestion, cells were collected by centrifugation (1000 rpm, 4° C., 5 minutes) and fixed using 1 mL of ice-chilled 100% methanol. After fixing the cells, centrifugation (1500 rpm, 4° C., 5 minutes) was performed in order to remove the methanol. […] Then FITC-bonded sheep anti-rabbit IgG (MP Biomedicals Inc., Catalog# 55647, Lot# 02756) was added to the cells and the cells were allowed to stand for one hour while shielding against light. After standing for one hour, the cells were loaded by a FACS Canto™ (Becton Dickinson, Franklin Lakes, N.J.) wherein a FSC voltage was set to 80, a FITC voltage was set to 300 and a threshold was set to 1000. Thereafter BD DiVa Software was used for analysis. In FIGS. 12 and 13, the intensity of FITC is shown on the horizontal axis and FSC is shown on the vertical axis.
Then uPA, DFP-treated uPA or tPA was added to differentiation-inducing medium and cultured for 9 days. Cells were isolated using trypsin treatment and collagenase treatment, and FACS analysis was performed using anti-albumin antibodies.

| Compound | expression of the differentiation markers for hepatocyte (albumin, Cyp7a1 etc.) (TT2 ES cells [1]) | albumin producing cells, share of the total number of cells (TT2 ES cells [2]) [%] | induction of differentiation into hepatocytes (TT2 ES cells [1]; differentiation-inducing medium supplemented with the factor) |
| --- | --- | --- | --- |
| N=C(N)c1ccc(N)cc1 [p-aminobenzamidine, reference compound] | suppressed | – | – |
| tPA: tissue-type PA which has the same substrate specificity as uPA | almost no change | 27.2 | did not induce differentiation into hepatocytes |
